Data as given in patent US20240335420A1, “N-ACYLHYDRAZONE COMPOUNDS CAPABLE OF INHIBITING NAV 1.7 AND/OR NAV 1.8, PROCESSES FOR THE PREPARATION THEREOF, COMPOSITIONS, USES, METHODS FOR TREATMENT USING SAME AND KITS” (EUROFARMA LABORATÓRIOS S.A., priority 2021, published 2024).

What was measured:
[1] = molecular target: human sodium channels Nav 1.8 (Homo sapiens (Human), UniProt Q9Y5Y9); test: Automated whole-cell voltage-clamp (ScreenPatch 384P), Nav 1.8 sodium current, Protocol 1; type: cell-based; conditions: CHO cells expressing human Nav 1.8; for IC50: Protocol 1 (holding −90 mV, 0.1 Hz), room temperature, read-out: Nav1.8 IC50; for inhibition at 10 µM: Protocol 1, read-out: Nav1.8 percent of inhibition (IC50 value not available)
Sequence of human sodium channels Nav 1.8 (Q9Y5Y9 whole entry): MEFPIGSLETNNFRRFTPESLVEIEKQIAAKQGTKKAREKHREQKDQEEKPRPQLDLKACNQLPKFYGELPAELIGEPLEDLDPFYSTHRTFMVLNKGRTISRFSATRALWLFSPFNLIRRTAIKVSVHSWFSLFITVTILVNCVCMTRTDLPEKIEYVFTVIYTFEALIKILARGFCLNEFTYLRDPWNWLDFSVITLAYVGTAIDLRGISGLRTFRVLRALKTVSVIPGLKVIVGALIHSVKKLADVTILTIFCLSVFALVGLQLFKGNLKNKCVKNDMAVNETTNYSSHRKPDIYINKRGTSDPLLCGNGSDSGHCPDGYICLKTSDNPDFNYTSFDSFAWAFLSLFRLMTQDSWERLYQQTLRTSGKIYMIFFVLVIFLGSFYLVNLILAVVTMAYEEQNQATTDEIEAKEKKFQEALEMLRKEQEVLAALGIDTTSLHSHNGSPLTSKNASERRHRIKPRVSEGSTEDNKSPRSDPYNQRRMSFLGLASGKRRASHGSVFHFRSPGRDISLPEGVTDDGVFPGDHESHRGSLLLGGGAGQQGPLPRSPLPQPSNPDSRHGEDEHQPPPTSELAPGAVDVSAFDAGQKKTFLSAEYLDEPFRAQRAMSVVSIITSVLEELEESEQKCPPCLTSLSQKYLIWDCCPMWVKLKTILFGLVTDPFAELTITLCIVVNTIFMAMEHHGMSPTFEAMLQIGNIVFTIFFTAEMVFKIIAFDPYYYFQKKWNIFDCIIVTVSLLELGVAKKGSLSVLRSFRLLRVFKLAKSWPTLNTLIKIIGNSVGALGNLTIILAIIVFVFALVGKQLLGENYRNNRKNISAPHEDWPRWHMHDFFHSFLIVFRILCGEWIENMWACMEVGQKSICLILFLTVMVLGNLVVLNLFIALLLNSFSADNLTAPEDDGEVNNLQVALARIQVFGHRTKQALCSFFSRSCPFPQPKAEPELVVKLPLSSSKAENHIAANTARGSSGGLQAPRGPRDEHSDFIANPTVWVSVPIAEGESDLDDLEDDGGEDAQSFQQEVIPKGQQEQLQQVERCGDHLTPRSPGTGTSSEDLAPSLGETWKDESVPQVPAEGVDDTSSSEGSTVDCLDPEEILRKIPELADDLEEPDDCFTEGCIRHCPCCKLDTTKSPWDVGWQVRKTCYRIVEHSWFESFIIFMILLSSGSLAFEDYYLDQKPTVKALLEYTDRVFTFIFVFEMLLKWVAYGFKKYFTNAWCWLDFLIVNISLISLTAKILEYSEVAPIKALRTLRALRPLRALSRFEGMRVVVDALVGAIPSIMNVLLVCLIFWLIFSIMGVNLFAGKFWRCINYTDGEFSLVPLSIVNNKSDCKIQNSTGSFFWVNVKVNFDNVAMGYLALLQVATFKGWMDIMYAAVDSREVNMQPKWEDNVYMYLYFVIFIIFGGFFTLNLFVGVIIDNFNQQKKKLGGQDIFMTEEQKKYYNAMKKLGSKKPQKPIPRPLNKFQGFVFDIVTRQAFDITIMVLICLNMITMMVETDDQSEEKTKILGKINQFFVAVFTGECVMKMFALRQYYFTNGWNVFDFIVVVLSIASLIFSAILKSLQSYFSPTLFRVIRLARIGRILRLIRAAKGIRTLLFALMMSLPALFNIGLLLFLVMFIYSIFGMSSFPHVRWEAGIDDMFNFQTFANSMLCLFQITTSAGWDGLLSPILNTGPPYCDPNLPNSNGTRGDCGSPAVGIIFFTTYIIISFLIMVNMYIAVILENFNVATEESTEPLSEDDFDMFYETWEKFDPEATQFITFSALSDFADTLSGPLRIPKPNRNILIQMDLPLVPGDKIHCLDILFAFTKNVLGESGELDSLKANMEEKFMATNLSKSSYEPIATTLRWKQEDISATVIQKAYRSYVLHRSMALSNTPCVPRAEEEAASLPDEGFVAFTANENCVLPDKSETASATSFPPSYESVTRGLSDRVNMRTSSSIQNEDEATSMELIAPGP
Experimental: (§1) Biological assays were performed on Chinese hamster ovary (CHO) cells expressing the human sodium channels Nav 1.8 and Nav 1.7 stably.
(§2) The experimental voltage-clamp protocol using the whole cell configuration was established on the automated ScreenPatch® 384P platform (SP384PE, Nanion Technologies, Livingston, NJ) and recording of the results was performed with a Nanion 384-well Patch Clamp chip (NPC) (Nanion Technologies, Livingston, NJ).
(§3) Compounds of Formula (I), were diluted in eight concentrations in the extracellular solution composed of physiological saline, buffered with HEPES (mM): NaCl, 137; KCl, 4; CaCl2, 3.8; MgCl2, 1; HEPES, 10; Glucose, 10; pH 7.4. The […], 50; CsF, 90; MgCl2, 5; EGTA, 5; HEPES, 10; pH 7.2. The duration of exposure of each compound with the cells expressing Nav 1.7 or Nav 1.8 was at least five minutes and the assays were performed at room temperature.
(§4) The measurements of the sodium currents of Nav 1.8 and Nav 1.7 were obtained using the voltage protocols described below: • Protocol 1: A holding voltage of −90 mV was established followed by a voltage phase of 200 ms to −120 mV, followed by a voltage step of 10 mV for 1 second for Nav 1.8 or 0 mV for Nav 1.7, followed by a step of −100 mV for 20 ms, followed by a step of 20 ms for 10 mV for Nav 1.8 or 0 mV for Nav 1.7 (TP1A) before returning to the holding voltage of −90 mV. • Protocol 2: A holding voltage of −100 mV was established followed by an inactivation voltage step at −40 mV for 8 seconds, followed by a −100 mV step for […], followed by a 20 ms step for 10 mV for Nav 1.8 or 0 mV for Nav 1.7 (TP1A) before returning to the holding voltage of −100 mV.
(§5) Protocols were repeated at a frequency of 0.1 Hz (Protocol 1) or 0.05 Hz (Protocol 2) and current amplitude was quantified over the TP1A phase log. The variation in the peak amplitude of the current was evaluated according to the Formula described below, after exposure of the cells expressing the channels, at each concentration of the different compounds:
(§6) [formula] • where |TP1A, basal, and |TP1A, molecule represent the entry peaks of sodium currents into TP1A prior to exposure to the compound and in the presence of the compound, respectively.
(§7) The decrease in peak current amplitude, after exposure of the cells to the compounds, was used to calculate the percent relative blocking of the channels relative to the positive control according to the Formula below:
(§8) [formula] • where % V and % CP represent the averages of the values of current inhibition with a vehicle (DMSO) and positive controls, respectively. The sodium currents of the positive control were considered as 100%.
(§9) [formula] • where [Test] represents the concentration of the evaluated molecule, IC50 is the concentration of the compound that generates half of the maximum inhibition, N is the Hill's coefficient and % Block′ is the percentage of the sodium channel current (Nav 1.8 and Nav 1.7) inhibited at each concentration of the evaluated molecule. Data were obtained by non-linear least squares regression with XLfit for Excel (Microsoft, Redmond, WA).
(§10) Compounds were tested in at least one assay to obtain the IC50 value.

[2] = molecular target: human sodium channels Nav 1.7 (Homo sapiens (Human), UniProt Q15858); test: Automated whole-cell voltage-clamp (ScreenPatch 384P), Nav 1.7 sodium current, Protocol 1; type: cell-based; conditions: CHO cells expressing human Nav 1.7; for IC50: Protocol 1 (holding −90 mV, 0.1 Hz), room temperature, read-out: Nav1.7 IC50; for inhibition at 10 µM: Protocol 1, read-out: Nav1.7 percent of inhibition (IC50 value not available)
Sequence of human sodium channels Nav 1.7 (Q15858 whole entry): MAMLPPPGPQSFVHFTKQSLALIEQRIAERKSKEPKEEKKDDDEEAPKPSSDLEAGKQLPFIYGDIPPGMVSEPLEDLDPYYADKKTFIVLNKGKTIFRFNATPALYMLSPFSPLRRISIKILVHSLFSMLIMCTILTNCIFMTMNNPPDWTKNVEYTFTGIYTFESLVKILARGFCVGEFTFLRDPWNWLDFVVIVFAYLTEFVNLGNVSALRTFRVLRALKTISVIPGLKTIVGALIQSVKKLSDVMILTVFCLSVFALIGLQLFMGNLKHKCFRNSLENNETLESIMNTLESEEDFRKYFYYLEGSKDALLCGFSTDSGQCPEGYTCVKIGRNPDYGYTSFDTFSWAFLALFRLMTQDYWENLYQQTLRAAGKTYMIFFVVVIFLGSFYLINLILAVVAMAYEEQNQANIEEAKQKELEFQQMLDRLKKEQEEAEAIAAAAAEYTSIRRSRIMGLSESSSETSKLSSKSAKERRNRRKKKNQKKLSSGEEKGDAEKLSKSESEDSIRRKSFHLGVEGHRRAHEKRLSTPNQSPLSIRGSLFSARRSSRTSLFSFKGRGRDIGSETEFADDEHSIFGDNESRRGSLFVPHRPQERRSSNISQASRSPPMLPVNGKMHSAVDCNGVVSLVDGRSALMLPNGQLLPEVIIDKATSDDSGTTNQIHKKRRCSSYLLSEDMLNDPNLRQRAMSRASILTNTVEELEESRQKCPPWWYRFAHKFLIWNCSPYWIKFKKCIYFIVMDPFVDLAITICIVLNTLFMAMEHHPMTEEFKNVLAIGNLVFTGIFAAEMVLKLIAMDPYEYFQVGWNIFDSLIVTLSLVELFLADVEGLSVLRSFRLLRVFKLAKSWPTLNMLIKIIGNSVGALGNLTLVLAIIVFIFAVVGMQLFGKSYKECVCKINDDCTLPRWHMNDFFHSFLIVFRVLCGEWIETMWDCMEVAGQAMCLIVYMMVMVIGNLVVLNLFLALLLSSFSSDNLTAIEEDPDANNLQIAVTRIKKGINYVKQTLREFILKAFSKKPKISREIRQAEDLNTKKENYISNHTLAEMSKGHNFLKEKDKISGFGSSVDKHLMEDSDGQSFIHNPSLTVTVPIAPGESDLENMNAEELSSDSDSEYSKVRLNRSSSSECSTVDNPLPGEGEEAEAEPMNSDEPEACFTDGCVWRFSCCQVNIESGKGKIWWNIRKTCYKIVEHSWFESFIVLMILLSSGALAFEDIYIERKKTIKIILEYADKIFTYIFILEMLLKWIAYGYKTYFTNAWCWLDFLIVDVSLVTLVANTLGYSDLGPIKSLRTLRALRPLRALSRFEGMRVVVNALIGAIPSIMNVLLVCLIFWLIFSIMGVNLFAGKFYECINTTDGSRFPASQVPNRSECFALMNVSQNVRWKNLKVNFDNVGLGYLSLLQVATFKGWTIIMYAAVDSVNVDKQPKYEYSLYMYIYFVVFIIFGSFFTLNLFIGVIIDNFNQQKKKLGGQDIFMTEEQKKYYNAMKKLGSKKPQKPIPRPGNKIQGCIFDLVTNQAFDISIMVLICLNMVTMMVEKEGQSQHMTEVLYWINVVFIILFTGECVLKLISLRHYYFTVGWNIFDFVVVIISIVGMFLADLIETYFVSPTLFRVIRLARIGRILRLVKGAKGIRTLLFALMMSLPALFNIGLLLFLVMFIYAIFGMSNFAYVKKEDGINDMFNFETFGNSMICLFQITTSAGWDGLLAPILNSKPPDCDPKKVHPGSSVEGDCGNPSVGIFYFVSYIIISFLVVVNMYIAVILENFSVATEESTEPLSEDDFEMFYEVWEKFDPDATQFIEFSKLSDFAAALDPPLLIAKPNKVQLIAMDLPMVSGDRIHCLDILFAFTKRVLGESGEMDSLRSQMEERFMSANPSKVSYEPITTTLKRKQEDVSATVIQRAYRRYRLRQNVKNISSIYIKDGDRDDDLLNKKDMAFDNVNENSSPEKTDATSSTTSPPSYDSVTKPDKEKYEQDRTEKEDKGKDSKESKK
Experimental: as §1, §2, §3, §4, §5, §6, §7, §8, §9, §10

IC50 [1] [µM] | IC50 [2] [µM] | inhibition at 10 µM [1] [%] | inhibition at 10 µM [2] [%] | SMILES
> 10 | > 10 | – | – | COc1cc(/C=N/NC(=O)c2ccnc(-c3ccc(OC4CCCC4)cc3)n2)cc(OC)c1 [Compound 55, (E)-2-(4-(cyclopentyloxy)phenyl)-N′-(3,5-dimethoxybenzylidene)pyrimidine-4-carbohydrazide]
6.83 | 7.09 | – | – | CCOc1ccc(-c2cncc(C(=O)N/N=C/c3cc(OC)cc(OC)c3)c2)cc1 [Compound 18, (E)-N′-(3,5-dimethoxybenzylidene)-5-(4-ethoxyphenyl) nicotinohydrazide]
> 10 | > 10 | – | – | CCOc1ccc(-c2cc(C(=O)N/N=C/c3cc(OC)cc(OC)c3)ccn2)cc1 [Compound 22, (E)-N′-(3,5-dimethoxybenzylidene)-2-(4-ethoxyphenyl) isonicotinohydrazide]
4.25 | 4.12 | – | – | COc1cc(/C=N/NC(=O)c2cncc(-c3ccc(Cl)cc3)c2)cc(OC)c1 [Compound 16, (E)-5-(4-chlorophenyl)-N′-(3,5-dimethoxybenzylidene) nicotinohydrazide]
> 10 | > 10 | – | – | COc1cc(/C=N/NC(=O)c2ccnc(-c3ccc(OC(F)(F)F)cc3)n2)cc(OC)c1 [Compound 56, (E)-N′-(3,5-dimethoxybenzylidene)-2-(4-(trifluoromethoxy)phenyl) pyrimidine-4-carbohydrazide]
3.21 | 1.89 | – | – | CCOc1ccc(-c2cccc(C(=O)N/N=C/c3cccs3)n2)cc1 [Compound 12, (E)-6-(4-ethoxyphenyl)-N′-(thiophen-2-ylmethylene) picolinohydrazide]
– | – | < 10 | < 10 | CCOc1ccc(-c2ccc(C(=O)N/N=C/c3cccnc3N3CCOCC3)o2)cc1 [Compound 4, (E)-5-(4-ethoxyphenyl)-N′-((2-morpholinopyridin-3-yl)methylene) furan-2-carbohydrazide]
> 10 | > 10 | – | – | COc1cc(/C=N/NC(=O)c2cc(-c3ccc(Cl)cc3)ccn2)cc(OC)c1 [Compound 42, (E)-4-(4-chlorophenyl)-N′-(3,5-dimethoxybenzylidene) picolinohydrazide]
> 10 | > 10 | – | – | CCOc1ccc(-c2cccc(C(=O)N(C)/N=C/c3cc(OC)cc(OC)c3)n2)cc1 [Compound 79, (E)-N′-(3,5-dimethoxybenzylidene)-6-(4-ethoxyphenyl)-N′-methylpicolinohydrazide]
5.9 | 5.72 | – | – | COc1cc(/C=N/NC(=O)c2cccc(-c3ccc(OC(C)C)cc3)n2)cc(OC)c1 [Compound 24, (E)-N′-(3,5-dimethoxybenzylidene)-6-(4-isopropoxyphenyl) picolinohydrazide]
5.9 | 5.72 | – | – | COc1cc(/C=N/NC(=O)c2cncc(-c3ccc(OC(C)C)cc3)c2)cc(OC)c1 [Compound 19, (E)-N′-(3,5-dimethoxybenzylidene)-5-(4-isopropoxyphenyl) nicotinohydrazide]
– | – | < 10 | < 10 | CC(C)Oc1ccc(-c2cccc(C(=O)N/N=C/c3cccs3)n2)cc1 [Compound 13, (E)-6-(4-isopropoxyphenyl)-N′-(thiophen-2-ylmethylene) picolinohydrazide]
– | – | < 10 | < 10 | COc1cc(/C=N/NC(=O)c2ccnc(-c3ccc(Cl)cc3)c2)cc(OC)c1 [Compound 20, (E)-2-(4-chlorophenyl)-N′-(3,5-dimethoxybenzylidene) isonicotinohydrazide]
> 10 | > 10 | – | – | O=C(N/N=C/c1cccs1)c1cc(-c2ccc(OC(F)(F)F)cc2)ccn1 [Compound 51, (E)-N′-(thiophen-2-ylmethylene)-4-(4-(trifluoromethoxy)phenyl) picolinohydrazide]
– | – | < 10 | < 10 | CCOc1ccc(-c2ccc(C(=O)N/N=C/c3cc(CN(C)C)cs3)o2)cc1 [Compound 5, (E)-N′-((4-((dimethylamino)methyl)thiophen-2-yl)methylene)-5-(4-ethoxyphenyl) furan-2-carbohydrazide]
> 30 | > 30 | – | – | CCOc1ccc(-c2ccc(C(=O)N/N=C/c3cccs3)o2)cc1 [Compound 3, (E)-5-(4-ethoxyphenyl)-N′-(thiophen-2-ylmethylene) furan-2-carbohydrazide]
> 10 | > 10 | – | – | CCCOc1ccc(-c2cc(C(=O)N/N=C/c3cc(OC)cc(OC)c3)ccn2)cc1 [Compound 30, (E)-N′-(3,5-dimethoxybenzylidene)-2-(4-propoxyphenyl) isonicotinohydrazide]
– | – | < 10 | < 10 | O=C(N/N=C/c1cccs1)c1ccc(-c2ccc(OCCN3CCOCC3)cc2)o1 [Compound 9, (E)-5-(4-(2-morpholinoethoxy)phenyl)-N′-(thiophen-2-ylmethylene) furan-2-carbohydrazide]
– | – | < 10 | < 10 | CC(C)Oc1ccc(-c2ccc(C(=O)N/N=C/c3cc(CN(C)C)cs3)o2)cc1 [Compound 8, (E)-N′-((4-((dimethylamino)methyl)thiophen-2-yl)methylene)-5-(4-isopropoxyphenyl) furan-2-carbohydrazide]
> 10 | 8.76 | – | – | CCOc1ccc(-c2cccc(C(=O)N/N=C/c3cccnc3N3CCOCC3)n2)cc1 [Compound 37, (E)-6-(4-ethoxyphenyl)-N′-((2-morpholinopyridin-3-yl)methylene) picolinohydrazide]
> 10 | > 10 | – | – | COc1cc(/C=N/NC(=O)c2cc(-c3ccc(OC(F)(F)F)cc3)ccn2)cc(OC)c1 [Compound 49, (E)-N′-(3,5-dimethoxybenzylidene)-4-(4-(trifluoromethoxy)phenyl) picolinohydrazide]
8.58 | 12 | – | – | O=C(N/N=C/c1cccs1)c1cccc(-c2ccc(Cl)cc2)n1 [Compound 11, (E)-6-(4-chlorophenyl)-N′-(thiophen-2-ylmethylene) picolinohydrazide]
> 10 | > 10 | – | – | COc1cc(/C=N/NC(=O)c2ccnc(-c3ccc(Cl)cc3)n2)cc(OC)c1 [Compound 52, (E)-2-(4-chlorophenyl)-N′-(3,5-dimethoxybenzylidene)pyrimidine-4-carbohydrazide]
> 10 | > 10 | – | – | COc1cc(/C=N/NC(=O)c2cc(-c3ccc(OC4CCCC4)cc3)ccn2)cc(OC)c1 [Compound 48, (E)-4-(4-(cyclopentyloxy)phenyl)-N′-(3,5-dimethoxybenzylidene) picolinohydrazide]
> 10 | > 10 | – | – | CCOc1ccc(-c2cccc(C(=O)N/N=C/c3c(Cl)cccc3Cl)n2)cc1 [Compound 34, (E)-N′-(2,6-dichlorobenzylidene)-6-(4-ethoxyphenyl) picolinohydrazide]
> 10 | > 10 | – | – | COc1ccc(-c2nccc(C(=O)N/N=C/c3cc(OC)cc(OC)c3)n2)cc1 [Compound 57, (E)-N′-(3,5-dimethoxybenzylidene)-2-(4-methoxyphenyl)pyrimidine-4-carbohydrazide]

SMILES | IC50 [1] [µM] | IC50 [2] [µM] | inhibition at 10 µM [1] [%] | inhibition at 10 µM [2] [%]
CCCCOc1ccc(-c2cncc(C(=O)N/N=C/c3cc(OC)cc(OC)c3)c2)cc1 [Compound 27, (E)-5-(4-butoxyphenyl)-N′-(3,5-dimethoxybenzylidene) nicotinohydrazide] | > 10 | > 10 | – | –
